Values of other authors in patent publication US7618664B2 (Cooperatieve Verkoop-en Productievereniging Van …, priority 2001, dated 2009).

Conditions: human body

calcium gluconate
toxicity: essentially not show any toxicity
